Measured values reported in ChEMBL document CHEMBL1151440, “Safety and pharmacokinetics of GSK364735, a human immunodeficiency virus type 1 integrase inhibitor, following single and repeated administration in healthy adult subjects” (Antimicrob Agents Chemother, 2007).

Tests used:
[1] = Terminal elimination half life in human at 400 mg administered with fat meal daily for 8 days measured on day 1; assay type: ADME, organism-based; conditions: in vivo, read-out: beta t1/2 (converted)
Canis familiaris = assay: Clearance in iv dosed dog assessed as liver blood flow; assay type: ADME, organism-based, Canis lupus familiaris; conditions: in vivo
[2] = Terminal elimination half life in iv dosed dog; assay type: ADME, organism-based, Canis lupus familiaris; conditions: in vivo, read-out: beta t1/2 (converted)
[3] = Terminal elimination half life in iv dosed monkey; assay type: ADME, organism-based, Macaca mulatta; conditions: rhesus monkey, in vivo, read-out: beta t1/2 (converted)
[4] = Oral bioavailability in dog; assay type: ADME, organism-based, Canis lupus familiaris; conditions: in vivo
[5] = Plasma concentration in human at 400 mg administered with fat meal every 12 hrs for 8 days measured on day 1 after 12 hrs of first dose; assay type: ADME, organism-based
[6] = Apparent oral clearance in human at 400 mg administered with fat meal daily for 8 days measured on day 1; assay type: ADME, organism-based; conditions: in vivo
[7] = Apparent oral clearance in human at 200 mg administered with fat meal every 8 hrs for 8 days measured on day 1; assay type: ADME, organism-based; conditions: in vivo
[8] = AUC (0 to 12 hrs) in human at 50 mg administered with fat meal every 12 hrs for 8 days measured on day 8; assay type: ADME, organism-based; design: dose 50 mg, time < 12 hr; conditions: plasma
[9] = AUC (0 to 12 hrs) in human at 100 mg administered with fat meal every 12 hrs for 8 days measured on day 8; assay type: ADME, organism-based; design: time < 12 hr, dose 100 mg; conditions: plasma
[10] = Cmax in human at 50 mg administered with fat meal every 12 hrs for 8 days measured on day 8; assay type: ADME, organism-based; design: dose 50 mg; conditions: in vivo
[11] = Cmax in human at 100 mg administered with fat meal every 12 hrs for 8 days measured on day 8; assay type: ADME, organism-based; design: dose 100 mg; conditions: in vivo
[12] = Cmax in human at 400 mg administered with fat meal daily for 8 days measured on day 8; assay type: ADME, organism-based; design: dose 400 mg; conditions: in vivo
[13] = Tmax in human at 50 mg administered with fat meal every 12 hrs for 8 days measured on day 8; assay type: ADME, organism-based; conditions: in vivo
[14] = Tmax in human at 200 mg administered with fat meal every 12 hrs for 8 days measured on day 8; assay type: ADME, organism-based; conditions: in vivo
[15] = Tmax in human at 400 mg administered with fat meal daily for 8 days measured on day 8; assay type: ADME, organism-based; conditions: in vivo
[16] = Tmax in human at 200 mg administered with fat meal every 8 hrs for 8 days measured on day 8; assay type: ADME, organism-based; conditions: in vivo
[17] = Oral bioavailability in monkey; assay type: ADME, organism-based, Macaca mulatta; conditions: rhesus monkey, in vivo
Homo sapiens [18] = assay: Toxicity in human assessed as diarrhea at 50 to 200 mg administered as single dose; assay type: organism-based; conditions: in vivo
Homo sapiens [19] = assay: Toxicity in human assessed as changes in vital signs at 50 to 200 mg administered as single dose; assay type: organism-based; conditions: in vivo
Homo sapiens [20] = assay: Toxicity in human assessed as headache at 50 mg administered every 12 hrs for 8 days; assay type: organism-based; conditions: in vivo
Homo sapiens [21] = assay: Toxicity in human assessed as adverse effect at 100 mg administered every 12 hrs for 8 days; assay type: organism-based; conditions: in vivo
Homo sapiens [22] = assay: Toxicity in human assessed as headache at 100 mg administered every 12 hrs for 8 days; assay type: organism-based; conditions: in vivo
Homo sapiens [23] = assay: Toxicity in human assessed as dizziness at 100 mg administered every 12 hrs for 8 days; assay type: organism-based; conditions: in vivo
Homo sapiens [24] = assay: Toxicity in human assessed as headache at 200 mg administered every 12 hrs for 8 days; assay type: organism-based; conditions: in vivo
Homo sapiens [25] = assay: Toxicity in human assessed as dizziness at 200 mg administered every 12 hrs for 8 days; assay type: organism-based; conditions: in vivo
Homo sapiens [26] = species: Homo sapiens; assay: Toxicity in human assessed as dizziness at 400 mg daily for 8 days; assay type: organism-based; conditions: in vivo, 192 h
Homo sapiens [27] = assay: Toxicity in human assessed as headache at 200 mg administered every 8 hrs for 8 days; assay type: organism-based; conditions: in vivo
Homo sapiens [28] = assay: Toxicity in human assessed as changes in 12-lead ECG at 50 to 400 mg after sequential repeated administration for 8 days; assay type: organism-based; conditions: in vivo, 192 h

SMILES: Cn1c(=O)c(C(=O)NCCO)c(O)c2ncc(Cc3ccc(F)cc3)cc21 [GSK-364735]
- half-life [1]: 4.1 h
- QH (Canis familiaris): 27.8%
- half-life [2]: 1.5 h
- half-life [3]: 1.5 h
- bioavailability [4]: 6%
- concentration at 12 h [5]: 340 ng/mL
- CL/F [6]: 433 mL/min
- CL/F [7]: 567 mL/min
- AUC at 12 h [8]: 5600 ng·h/mL
- AUC at 12 h [9]: 12000 ng·h/mL
- Cmax [10]: 1400 ng/mL
- Cmax [11]: 2600 ng/mL
- Cmax [12]: 2100 ng/mL
- Tmax [13]: 3.75 h
- Tmax [14]: 3 h
- Tmax [15]: 4 h
- Tmax [16]: 4 h
- bioavailability [17]: 6%
- Activity (Homo sapiens [18]): 4%
- Activity (Homo sapiens [19]): Non-toxic
- Activity (Homo sapiens [20]): 13%
- Activity (Homo sapiens [21]): 38%
- Activity (Homo sapiens [22]): 13%
- Activity (Homo sapiens [23]): 13%
- Activity (Homo sapiens [24]): 13%
- Activity (Homo sapiens [25]): Non-toxic
- Activity (Homo sapiens [26]): Non-toxic
- Activity (Homo sapiens [27]): 13%
- Activity (Homo sapiens [28]): Non-toxic
